Data taken from ChEMBL document CHEMBL1150095, “Antitumor activity and stereochemistry of acetylenic alcohols from the sponge Cribrochalina vasculum” (1995).
Activity calls are given as the source filed them. The calls are words filed in the database; no cut-off is given here.

Assays:
NCI-H522 = experiment: Antitumor activity against human NCI-H522 cells; type: functional
IGROV-1 = experiment: Antitumor activity against human IGROV1 cells; type: functional

C#C[C@@H](O)/C=C/CCCCCCCCC/C=C\CCCCC(C)C
Activity (NCI-H522): Active
Activity (IGROV-1): Active
